In patent US20230136600A1, “Method and device for screening antigen epitope polypeptide” (priority 2020, published 2023):

How the values were obtained:
[1] = system: Balb/c mice; assay: Detection of peptide immunogenicity by polypeptide chip: vaccine peptide-specific signal sequencing (timing-sequence response, Fisher exact test); assay type: in vivo; details: Embodiment IV; 7-peptide mixed solution with adjuvant: Mix 1 AddaVax, 2 Imject Alumn, 3 Alhydrogel, 4 Adju-Phos, 5 MA103A, 6 MA103B
[2] = system: Balb/c mice; assay: Polypeptide chip-based vaccine immunogenicity scoring system; assay type: in vivo; set-up: key to A2: whether the 95 percentile of the last sampling is increased compared with the end point: Y = rise; N = no rise; details: Embodiment III, polypeptide-KLH; for A1: difference between a highest median and a D 0 median (95 percentile) / A2: whether the 95 percentile of the last sampling is increased compared with the end point: Mix1-10; for Total single peptide: A*3 + B*2 + C*1; for A: 95 percentile grouping number score / B: Mouse performance score: total score = 5; for C1: #A timing-sequence response peptide fragment set / C2: #B vaccine specificity peptide fragment set / C3: Intersection of A and B / C4: Percentage of the intersection in set B / C: Timing-sequence response and specificity score: value of the whole mix

Row | Substance | #A timing-sequence response peptide fragment set [1] | #B vaccine specificity peptide fragment set [1] | Intersection of A and B [1] | Mode I [1] | Mode II [1] | B1: D 0-D 14 95 percentile rise in the number of mice [2] | B2: D 0-D 21 95 percentile rise in the number of mice [2] | B3: D 14-D 21 95 percentile rise in the number of mice [2] | B4: D 21-D 28 95 percentile rise in the number of mice [2] | A1: difference between a highest median and a D 0 median (95 percentile) [2] | A2: whether the 95 percentile of the last sampling is increased compared with the end point [2] | Total single peptide [2] | A: 95 percentile grouping number score [2] | B: Mouse performance score [2] | C1: #A timing-sequence response peptide fragment set [2] | C2: #B vaccine specificity peptide fragment set [2] | C3: Intersection of A and B [2] | C4: Percentage of the intersection in set B [2] | C: Timing-sequence response and specificity score [2]
1 | 1 (YTNDKACPL; SARS-CoV-2) [compound 1] | 237 | 1244 | 0 | 87 | 157 |  |  |  |  |  |  |  |  |  |  |  |  |  | 
2 | 2 (RGGSYTNDKAC; SARS-CoV-2) [compound 2] | 100 | 1244 | 3 | 74 | 31 |  |  |  |  |  |  |  |  |  |  |  |  |  | 
3 | 3 (SVYAWNRKR; SARS-CoV-2) [compound 3] | 123 | 1244 | 2 | 73 | 53 |  |  |  |  |  |  |  |  |  |  |  |  |  | 
4 | 4 (ALDPLSETKCT; SARS-CoV-2) [compound 4] | 203 | 1244 | 0 | 23 | 183 |  |  |  |  |  |  |  |  |  |  |  |  |  | 
5 | 5 (GRLQSLQTY; SARS-CoV-2) [compound 5] | 260 | 1244 | 3 | 102 | 171 |  |  |  |  |  |  |  |  |  |  |  |  |  | 
6 | VNKGEDIQLLKS [SEQ ID NO:27] |  |  |  |  |  | 3 | 3 | 1 | 0 | 0.14 | N | 17.4 | 4.5 | 1.7 | 133 | 431 | 1 | 0.232 | 0.5
7 | YEGNSPFH [SEQ ID NO:18] |  |  |  |  |  | 3 | 2 | 0 | 2 | 0.06 | Y | 9.9 | 2 | 1.7 | 1212 | 389 | 1 | 0.257 | 0.5
8 | YTNDKACPL (SARS-CoV-2) [SEQ ID NO:1] |  |  |  |  |  | 2 | 2 | 1 | 1 | 0.11 | Y | 18.3 | 5 | 1.4 | 257 | 682 | 3 | 0.440 | 0.5
9 | YYKKDNSYF (SARS-CoV-2) [SEQ ID NO:25] |  |  |  |  |  | 2 | 3 | 2 | 1 | 0.06 | N | 9.1 | 1.5 | 1.8 | 823 | 398 | 7 | 1.759 | 1
